Measured values: BindingDB's records for patent US20250313563 (The Broad Institute, 2025)
Several values for one entry are separate records, joined by “and”; a condition that tells them apart may be missing. Identical values can stand only once.

Assays:
[1] = target: Glycogen synthase kinase-3 beta (Homo sapiens, UniProt P49841); experiment: TR-FRET Assay
Outline: (§1)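 Compound was preincubated 30 min in assay buffer before the kinase reaction, which was quenched with EDTA. Phosphorylation was detected by TR-FRET after adding a solution of 40 nM streptavidin-d2 and 2 nM Tb-labelled anti-pSer641 antibody.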

[2] = target: Glycogen synthase kinase-3 alpha (Homo sapiens, UniProt P49840); experiment: TR-FRET Assay
Sequence of Glycogen synthase kinase-3 alpha (P49840 whole entry): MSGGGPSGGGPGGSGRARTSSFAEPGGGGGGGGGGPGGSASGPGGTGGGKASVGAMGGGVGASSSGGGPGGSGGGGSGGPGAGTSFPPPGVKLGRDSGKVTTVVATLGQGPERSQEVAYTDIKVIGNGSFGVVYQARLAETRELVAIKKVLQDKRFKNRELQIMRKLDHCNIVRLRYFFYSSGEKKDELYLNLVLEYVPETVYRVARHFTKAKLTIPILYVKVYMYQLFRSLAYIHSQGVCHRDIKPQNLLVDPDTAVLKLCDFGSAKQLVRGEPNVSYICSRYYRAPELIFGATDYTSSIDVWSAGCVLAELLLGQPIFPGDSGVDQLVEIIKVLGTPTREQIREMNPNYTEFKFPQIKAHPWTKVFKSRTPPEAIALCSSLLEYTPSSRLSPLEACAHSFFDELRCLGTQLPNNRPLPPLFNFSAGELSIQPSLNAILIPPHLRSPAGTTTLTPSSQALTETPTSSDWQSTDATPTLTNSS
Outline: as §1

Sequence of Glycogen synthase kinase-3 beta (P49841 whole entry): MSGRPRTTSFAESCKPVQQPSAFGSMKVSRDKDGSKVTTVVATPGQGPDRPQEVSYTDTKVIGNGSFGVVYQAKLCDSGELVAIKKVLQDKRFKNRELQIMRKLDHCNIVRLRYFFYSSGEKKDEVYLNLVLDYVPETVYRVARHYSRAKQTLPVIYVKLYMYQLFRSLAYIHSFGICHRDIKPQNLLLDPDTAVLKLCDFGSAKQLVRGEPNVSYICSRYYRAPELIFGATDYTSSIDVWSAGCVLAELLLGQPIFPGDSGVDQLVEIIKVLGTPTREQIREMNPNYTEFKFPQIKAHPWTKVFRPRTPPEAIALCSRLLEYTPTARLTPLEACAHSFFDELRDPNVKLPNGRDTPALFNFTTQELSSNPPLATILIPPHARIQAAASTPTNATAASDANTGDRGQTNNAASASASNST

IC50 [1]	IC50 [2]	SMILES
< 100 nM	< 100 nM	CC1(C)CC(=O)C2=C(C1)NC1=C(CN=N1)C21COC2(CN(C(=O)CC3CCC3)C2)C1 (configuration not stated) [US20250313563, Compound 947299]
1000 to 5000 nM	100 to 1000 nM	CCC1(c2cccc(-c3ccnc(C)c3)c2)C2=C(N=NC2)NC2=C1C(=O)C(C)(C)C2 (configuration not stated) [US20250313563, Compound 949840]
1000 to 5000 nM	100 to 1000 nM	CC[C@@]1(c2cccc(N(C)c3nccc(OC)n3)c2)C2=CN=NC2NC2=C1C(=O)CC(C)(C)C2 (some centres not stated) [US20250313563, Compound 947337]
< 100 nM and 1000 to 5000 nM	< 100 nM and 100 to 1000 nM	CC[C@@]1(c2cccc(-c3cc(C)ncc3F)c2)C2=C(CC(C)(C)NC2=O)NC2N=NC(C(F)(F)F)=C21 (some centres not stated) [US20250313563, Compound 949650]
100 to 1000 nM and 1000 to 5000 nM	< 100 nM and 100 to 1000 nM	CC[C@@]1(c2cccc(-c3ccnc(C)c3C)c2)C2=CN=NC2NC2=C1C(=O)NC(C)(C)C2 (some centres not stated) [US20250313563, Compound 948184]
100 to 1000 nM	< 100 nM	CCC1(c2cccc(-c3ccnc(C)c3F)c2)C2=C(CC(C)(C)NC2=O)NC2N=NC(C)=C21 (configuration not stated) [US20250313563, Compound 947402]
> 5000 nM	> 5000 nM	CC[C@]1(c2cccc(-c3cnn(C(F)F)c3)c2)C2=CN=NC2NC2=C1C(=O)NC(C)(C)C2 (some centres not stated) [US20250313563, Compound 948816]
1000 to 5000 nM	100 to 1000 nM	CCn1nc(C)c(S(=O)(=O)N2CCC3(CC2)C2=C(N=NC2)NC2=C3C(=O)CC(C)(C)C2)c1C [US20250313563, Compound 945679]
100 to 1000 nM	< 100 nM	COc1ccc(S(=O)(=O)N2CCC3(CC2)C2=C(N=NC2)NC2=C3C(=O)CC(C)(C)C2)c(C)c1C [US20250313563, Compound 945662]
< 100 nM and 100 to 1000 nM	< 100 nM and 100 to 1000 nM	CC1(C)CC(=O)C2=C(C1)NC1=C(CN=N1)[C@]21COC2(CN(C(=O)[C@H]3CC3(F)F)C2)C1 [US20250313563, Compound 948215]
> 5000 nM	1000 to 5000 nM	CC[C@]1(c2cccc(-c3ccnc(C)c3C)c2)C2=CN=NC2NC2=C1C(=O)NC(C)(C)C2 (some centres not stated) [US20250313563, Compound 948188]
100 to 1000 nM	< 100 nM	CC[C@@]1(c2cccc(N(C)c3cc(C)ccn3)c2)C2=CN=NC2NC2=C1C(=O)CC(C)(C)C2 (some centres not stated) [US20250313563, Compound 945609]
> 5000 nM	> 5000 nM	CC[C@]1(c2cccc(-c3cnn(Cc4cccc(C(F)(F)F)c4)c3)c2)C2=CN=NC2NC2=C1C(=O)NC(C)(C)C2 (some centres not stated) [US20250313563, Compound 949513]
100 to 1000 nM	< 100 nM	CC(C)C(=O)N1CC2(C1)CC1(CO2)C2=C(N=NC2)NC2=C1C(=O)CC(C)(C)C2 (configuration not stated) [US20250313563, Compound 947304]
100 to 1000 nM	< 100 nM	CCC1(c2cccc(C(F)(F)F)c2)C2=CN=NC2NC2=C1C(=O)N(c1cccnc1)CC2 (configuration not stated) [US20250313563, Compound 945637]
< 100 nM and 100 to 1000 nM	< 100 nM	CC[C@@]1(c2cccc(-c3cc(C)nn3C)c2)C2=C(CC(C)(C)CC2=O)NC2N=NC(C(F)(F)F)=C21 (some centres not stated) [US20250313563, Compound 947384]
100 to 1000 nM	< 100 nM	Cn1ccc(S(=O)(=O)N2CCC3(CC2)C2=C(N=NC2)NC2=C3C(=O)CC(C)(C)[C@@H]2F)n1 [US20250313563, Compound 951708]
< 100 nM and 1000 to 5000 nM	< 100 nM and 100 to 1000 nM	CCC1(c2cccc(-c3ccnc(C)c3)c2)C2=C(CC(C)(C)NC2=O)NC2N=NC(Cl)=C21 (configuration not stated) [US20250313563, Compound 948998]
> 5000 nM	100 to 1000 nM	CC[C@@]1(c2cccc(-c3cnn(CC(=O)N(C)C)c3)c2)C2=CN=NC2NC2=C1C(=O)NC(C)(C)C2 (some centres not stated) [US20250313563, Compound 952208]
< 100 nM	< 100 nM	Cc1ncc(S(=O)(=O)N2CCC3(CC2)C2=C(N=NC2)NC2=C3C(=O)CC(C)(C)C2)s1 [US20250313563, Compound 947899]
< 100 nM	< 100 nM	CC[C@@]1(c2cccc(-c3ccncc3F)c2)C2=C(CC(C)(C)NC2=O)NC2N=NC(C)=C21 (some centres not stated) [US20250313563, Compound 947821]
< 100 nM	< 100 nM	CC[C@]1(c2cccc(S(=O)(=O)C3CC3)c2)C2=CN=NC2NC2=C1C(=O)NC(C)(C)C2 (some centres not stated) [US20250313563, Compound 947803]

Continued, molecule first:

SMILES	IC50 [1]	IC50 [2]
CCC1(c2cccc(-c3ccnn3C(C)C)c2)C2=CN=NC2NC2=C1C(=O)CC(C)(C)C2 (configuration not stated) [US20250313563, Compound 929399]	< 100 nM	< 100 nM
CC1(C)CC(=O)C2=C(C1)NC1=C(CN=N1)[C@]21CCc2c(F)cccc21 [US20250313563, Compound 806633]	100 to 1000 nM	< 100 nM
CC1(C)CC(=O)C2=C(C1)NC1N=NC=C1C21CCCN(S(=O)(=O)C2CC2)CC1 (configuration not stated) [US20250313563, Compound 917137]	< 100 nM	< 100 nM
Cn1ccc(S(=O)(=O)N2CCCC3(CC2)C2=CN=NC2NC2=C3C(=O)CC(C)(C)C2)n1 (configuration not stated) [US20250313563, Compound 917138]	< 100 nM	< 100 nM
CCC1(c2cccc(-c3ccncc3F)c2)C2=CN=NC2NC2=C1C(=O)CC(C)(C)C2 (configuration not stated) [US20250313563, Compound 883986]	< 100 nM	< 100 nM
CC1(C)CC2=C(C(=O)N1)C1(CCN(S(C)(=O)=O)CC1)C1=C(N=NC1)N2 [US20250313563, Compound 943959]	100 to 1000 nM	< 100 nM
CC[C@@]1(c2ccccc2)C2=C(N=NC2)NC2=C1C(=O)[C@H]1CC[C@@H]2C1 [US20250313563, Compound 791266]	> 5000 nM	> 5000 nM
CC[C@@]1(c2cccc(C(F)(F)F)c2)C2=CN=NC2NC2=C1C(=O)NCC2 (some centres not stated) [US20250313563, Compound 912668]	> 5000 nM	> 5000 nM
CC1N=NC2=C1C1(CCOCC1)C1=C(CC(C)(C)C(F)C1=O)N2 (configuration not stated) [US20250313563, Compound 912072]	100 to 1000 nM	100 to 1000 nM
CC(C)(C)CC1=C2C(N=N1)NC1=C(C(=O)CC(C)(C)C1)[C@@]21COc2ccccc21 (some centres not stated) [US20250313563, Compound 117093]	100 to 1000 nM	1000 to 5000 nM
CCC1(c2cccc(-c3ccncn3)c2)C2=CN=NC2NC2=C1C(=O)CC(C)(C)C2 (configuration not stated) [US20250313563, Compound 806637]	100 to 1000 nM	< 100 nM
CC[C@]1(c2cccc(-c3ccnc(C)c3)c2)C2=CN=NC2NC2=C1C(=O)[C@H](F)C(C)(C)C2 (some centres not stated) [US20250313563, Compound 945485]	> 5000 nM	> 5000 nM
CC[C@@]1(c2cccc(-c3ccncn3)c2)C2=CN=NC2NC2=C1C(=O)CC(C)(C)C2 (some centres not stated) [US20250313563, Compound 810489]	> 5000 nM	1000 to 5000 nM
CC[C@@]1(c2cccc(N3CCOCC3)c2)C2=C(CC(C)(C)CC2=O)NC2N=NC(C(F)(F)F)=C21 (some centres not stated) [US20250313563, Compound 816886]	1000 to 5000 nM	1000 to 5000 nM
CN(C)C(=O)C1CCC2(CC1)C1=C(N=NC1)NC1=C2C(=O)CC(C)(C)C1 (configuration not stated) [US20250313563, Compound 945395]	1000 to 5000 nM	100 to 1000 nM
CCC1(c2cccc(-c3c(C)nn(C)c3C)c2)C2=CN=NC2NC2=C1C(=O)CC(C)(C)C2 (configuration not stated) [US20250313563, Compound 883851]	< 100 nM	< 100 nM
CC1(C)CC(=O)C2=C(C1)NC1=C(CN=N1)[C@@]21COC2(CCC2)C1 [US20250313563, Compound 917129]	100 to 1000 nM	100 to 1000 nM
CC[C@@]1(c2cccc(C(F)(F)F)c2)C2=C(N=NC2)NC2=C1C(=O)N[C@H]2C [US20250313563, Compound 945381]	> 5000 nM	> 5000 nM
CC[C@@]1(c2cccc(C(F)(F)F)c2)C2=CN=NC2NC2=C1C(=O)N[C@@H](c1ccccc1)C2 (some centres not stated) [US20250313563, Compound 945364]	> 5000 nM	> 5000 nM
CCC1(c2cccc(C3CC3)c2)C2=CN=NC2NC2=C1C(=O)CC(C)(C)C2 (configuration not stated) [US20250313563, Compound 801316]	< 100 nM	< 100 nM
CC[C@]1(c2cccc(OC)c2)C2=CN=NC2NC2=C1C(=O)CC(C)(C)C2 (some centres not stated) [US20250313563, Compound 811561]	> 5000 nM	1000 to 5000 nM
O=C1C[C@H](C(F)(F)F)CC2=C1C1(CCOCC1)C1=C(N=NC1)N2 [US20250313563, Compound 901477]	1000 to 5000 nM	100 to 1000 nM
CC[C@@]1(c2cccc(-c3cnn(C)c3C)c2)C2=C(CC(C)(C)CC2=O)NC2N=NC(C)=C21 (some centres not stated) [US20250313563, Compound 913024]	1000 to 5000 nM	100 to 1000 nM
CCC1(c2cccc(N3CCc4ccncc4C3)c2)C2=CN=NC2NC2=C1C(=O)CC(C)(C)C2 (configuration not stated) [US20250313563, Compound 917148]	> 5000 nM	1000 to 5000 nM
